# Data taken from publication PMC9198979, “Polymeric Nanotubes as Drug Delivery Vectors—Comparison of Covalently and Supramolecularly Assembled Constructs” (Biomacromolecules, 2022).
# Test: In vivo pharmacokinetics of 14C-radiolabelled compounds after IV dosing (plasma and urine radioactivity)
# Parameters: species or system male Sprague Dawley rats
# Conditions: rat
# Method: All animal experimental protocols were approved by the Monash Institute of Pharmaceutical Sciences Animal Ethics Committee, Monash University, Parkville, VIC, Australia. Male Sprague Dawley rats (250–350 g) were used. Animals were maintained on a 12 h light/dark cycle at all times and after transport were acclimatized for 7 days at the facility prior to in vivo studies. […] Urine samples were collected at the 24 h timepoint, and a 50 μL of the sample was transferred to a vial, 4 mL of Ultima Gold added and counted using the scintillator. A blank urine sample prior to dosage was also collected and analyzed to account for background radiation. The pharmacokinetic parameters were determined using non-compartmental analysis with Excel software using the PK Solver add-in (NCA IV Bolus model). […] AUC0-t, elimination half-life (t1/2), volume of distribution at steady state (Vd ss), and clearance rate (Cl) were calculated with this approach. For the linear compound, the 1440 min timepoint was omitted from parameter fitting due to the very low radioactivity for this measurement. The ^14C-radiolabeled compounds were injected intravenously into male Sprague-Dawley rats at a nominal dose of radioactivity (1 μCi, varying 0.82–2.78 mg dose of the sample) and blood samples taken over the course of 24 h to monitor the plasma concentration time profiles.
row,Cl (clearance rate),Substance
1,0.342 ± 0.102 mL h^–1,(PNAM50-co-NAS2.5)140 [BB]
2,16.9 ± 0.91 mL h^–1,PNAM100-co-NAS5 [linear]
